{"source": "patent US9980967B1", "about": "“Method for overcoming drug resistance of EGFR mutation and cancerous stemness of human non-small cell lung carcinoma” (NATIONAL CHIAO TUNG UNIVERSITY, priority 2017, dated 2018)", "key": {"A549 cells": {"system": "A549 cells", "test": "MTT cell viability assay in A549 cells", "format": "cell-based, human", "conditions": "0~40 μM for 24 hours, compared with Gefitinib", "experimental": "After treatment, the cells were re-cultured in fresh medium for 2 days. The cell viability was analyzed by MTT assays. The results were obtained from three independent experiments and the bar represents the mean±S.E.M. ***p<0.001 indicates significant difference between Gefitinib and SP101 treated samples.\nA549 (ATCC number: CCL-185) was a non-small cell lung carcinoma cell line which expressed wild type EGFR and with K-Ras mutation (G12S). H1975 (ATCC number: CRL-5908) was a non-small cell lung carcinoma cell line which expressed EGFR L858R/T790M mutation. Oct4 and Nanog overexpression in A549-ON presented the properties of cancer stem-like cells, as well as epithelial-mesenchymal transdifferentiation. PLC26 was lung cancer cells that separated from pleural effusion of a clinical lung cancer patient (IRB number: 103-011-E). A549-ON cells were cultured in DMEM medium. A549 and H1975 cells were maintained in RPMI-1640 medium. […]\nPlease refer to FIG. 12. […] To compare the cell viability of SP101 and Gefitinib in K-Ras mutation-drug resistant A549 and A549-ON cell lines, the cells were treated with 0˜40 μM SP101 or Gefitinib for 24 hours, and analyzed by MTT assays. […] To determine the effect of SP101 and Gefitinib on the cell viability in cancer stem-like A549-ON cells, the cells were treated with 10˜40 μM SP101 or Gefitinib for 24 hours, and analyzed by MTT assays."}, "[1]": {"system": "Survivin and cleaved Caspase 3 in xenograft tumor tissues", "test": "Western blot and IHC of Survivin and cleaved Caspase 3 in xenograft tumor tissues", "format": "in vivo, nude mice", "description": "FIG. 11 is a result of IHC immunohistochemistry staining showing that SP101 enhanced Caspase 3 protein level in NSCLC tumor tissues. Representative photographs were by IHC staining the active Caspase 3 proteins in the tumor sections. Positive cells were visualized by DAB staining (brown), counterstain with nuclei by hematoxylin.\nPlease refer to FIG. 10. The xenograft tumor tissues from each group were homogenized and the total lysates were subjected to Western blot analysis using specific antibodies, including rabbit anti-Survivin, rabbit anti-cleaved Caspase 3 and mouse anti-actin. Representative immunoblotting data were shown from one of two separate experiments with similar findings. Actin was an internal control protein. SP101 reduced Survivin protein level; meanwhile, SP101 induced the apoptotic protein level of cleaved Caspase 3."}, "[2]": {"system": "Survivin and cleaved-form Caspase 3 in H1975 cells", "test": "Western blot and immunofluorescence of Survivin and cleaved Caspase 3 in H1975 cells", "format": "cell-based, human", "description": "(§1) FIG. 5 is a result of immunofluorescence staining and confocal microscopy. The green color indicated location of Survivin protein excited with 488 nm. The β-tubulin protein was stained with Cy3-labeled mouse anti-β-tubulin antibody (red color). The fluorescence intensity of β-tubulin was excited with 543 nm and the emission was collected in range of 560-580 nm. Blue color indicated location of nuclei following stained with Hoechst 33258 and was excited with 405 nm and the emission was collected in range of 415-450 nm. Overlapping localization is shown in the merged images.\nas §1, with “FIG. 6” for “FIG. 5”, “of cleaved Caspase 3” for “of Survivin”\nReduction of Survivin protein expression has shown to inhibit tumor growth in NSCLC. Please refer to FIG. 4. H1975 cells with EGFR (T790M) mutation were treated with or without SP101 (20˜30 μM for 24 hours) and analyzed by Western blot. […] Actin was an internal control protein.\nFurther, immunofluorescence staining and confocal microscopy were utilized to determine the expression and cell morphology of Survivin and cleaved-form Caspase 3 after treatment with SP101 in H1975 cells with EGFR (T790M) mutation. The cells were treated with or without 30 μM of SP101 for 24 hours. At the end of treatment, the cells were fixed with 4% paraformaldehyde at 37 °C for 1 hour. The fixed cells were incubated with rabbit anti-Survivin antibody or rabbit anti-cleaved caspase-3 antibody at 4 °C overnight. Then the cells were stained with goat anti-rabbit IgG Dylight 488 at 37 °C for 1 hour. Please refer to FIGS. 5 and 6. The green fluorescence (Dylight 488) indicated location of Survivin and cleaved-form Caspase 3. The blue fluorescence (Hoechst 33258) and red fluorescence (Cy3) represented nucleus and β-tubulin respectively. Treatment with 30 μM SP101 for 24 hours, Survivin protein expression was reduced; in addition, the apoptotic bodies and cleaved-form Caspase 3 protein were induced."}, "[3]": {"target": "T1, phosphorylated EGFR (Tyr 1068) (Homo sapiens, UniProt P00533, L858R/T790M)", "T1 construct": "endogenous in cells; host or cells: H1975 (ATCC CRL-5908)", "test": "Western blot of phosphorylated EGFR and total EGFR in H1975 cells", "format": "cell-based", "conditions": "20~30 μM for 24 hours", "experimental": "EGFR binding cognate ligands may lead to autophosphorylation of receptor tyrosine kinase and subsequent activation of signal transduction pathways of cell survival. Besides, aberrant tyrosine kinase activation increases proliferation and drug resistance of malignant cells. Please refer to FIG. 3. H1975 cells were treated with 0˜30 μM of SP101 for 24 hours. The total protein extracts were prepared for Western blot analyses using specific antibodies, including rabbit anti-p-EGFR (Tyr1068), rabbit anti-EGFR and mouse anti-actin. Representative immunoblotting data were shown from one of three separate experiments with similar findings. Actin was an internal control protein."}, "[4]": {"conditions": "xenograft tumor tissues, Western blot"}, "[5]": {"conditions": "30 μM for 24 hours, immunofluorescence and confocal microscopy"}, "[6]": {"conditions": "20~30 μM for 24 hours, Western blot"}}, "data": [{"compound": "CCCCCCCCCCCCOC(=O)CCC(=O)N1CCN(CCCOc2cc3c(Nc4ccc(F)c(Cl)c4)ncnc3cc2OC)CC1", "note": "[SP101, dodecyl 4-(4-(3-(4-(3-chloro-4-fluorophenylamino)-7-methoxyquinazolin-6-yloxy)propyl)piperazin-1-yl)-4-oxobutanoate]", "values": [{"measurement": "reduction of cell viability", "setting": "A549 cells", "value": "more potent on the reduction of cell viability than Gefitinib"}, {"measurement": "Survivin protein level", "setting": "[1]; [4]", "value": "reduced"}, {"measurement": "apoptotic protein level of cleaved Caspase 3", "setting": "[1]; [4]", "value": "induced"}, {"measurement": "reduction of Survivin protein and increasing of cleaved Caspase 3 protein level, compared with Gefitinib", "setting": "[1]; [4]", "value": "more potent"}, {"measurement": "active forms of Caspase 3 protein", "setting": "[1]; xenografted NSCLC tumors, IHC staining, compared with control and Gefitinib groups", "value": "significantly induced"}, {"measurement": "Survivin protein expression", "setting": "[2]; [5]", "value": "reduced"}, {"measurement": "apoptotic bodies and cleaved-form Caspase 3 protein", "setting": "[2]; [5]", "value": "induced"}, {"measurement": "Survivin protein level", "setting": "[2]; [6]", "value": "reduced"}, {"measurement": "apoptotic protein level of cleaved-form Caspase 3", "setting": "[2]; [6]", "value": "induced"}, {"measurement": "phosphorylated EGFR (Tyr 1068) protein level", "setting": "[3]", "value": "significantly reduced"}, {"measurement": "total EGFR protein level", "setting": "[3]", "value": "did not inhibit"}]}]}
